Test results from ChEMBL document CHEMBL1201862, “PubChem BioAssay data set” (2004).
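Five concentrations, 48 hours, 96-well plates. GI50 = concentration required for 50% inhibition of growth.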 Activity calls are given as the source filed them. No stated cut-off is given here; in the data, active = GI50 up to about 1.1 µM and inactive = higher.

Columns and labels:
Assay in all cases: inhibition of tumour cell growth, NCI panel, 48 h
MDA-MB-435 = test system: MDA-MB-435
UACC-257 = test system: UACC-257
A498 = test system: A498
K562 = test system: K562
MDA-MB-231 = test system: MDA-MB-231
KM12 = test system: KM12
MCF7 = test system: MCF7
SN12C = test system: SN12C
TK-10 = test system: TK-10
SNB-75 = test system: SNB-75
OVCAR-8 = test system: OVCAR-8
CAKI-1 = test system: CAKI-1
RXF 393 = test system: RXF 393
HL-60 = test system: HL-60
Hs-578T = test system: Hs-578T
SF-295 = test system: SF-295
SW-620 = test system: SW-620
UACC-62 = test system: UACC-62
NCI-H460 = test system: NCI-H460
Malme-3M = test system: Malme-3M

Compound | GI50 (MDA-MB-435) | GI50 (UACC-257) | GI50 (A498) | GI50 (K562) | GI50 (MDA-MB-231) | GI50 (KM12) | GI50 (MCF7) | GI50 (SN12C) | GI50 (TK-10) | GI50 (SNB-75) | GI50 (OVCAR-8) | GI50 (CAKI-1) | GI50 (RXF 393) | GI50 (HL-60) | GI50 (Hs-578T) | GI50 (SF-295) | GI50 (SW-620) | GI50 (UACC-62) | GI50 (NCI-H460) | GI50 (Malme-3M)
O=C(O)C(CCc1ccccn1)c1ccccc1 (stereo not given) | > 100 µM (inactive) | > 100 µM (inactive) | > 100 µM (inactive) | > 100 µM (inactive) | > 100 µM (inactive) | > 100 µM (inactive) | > 100 µM (inactive) | > 100 µM (inactive) | > 100 µM (inactive) | > 100 µM (inactive) | > 100 µM (inactive) | > 100 µM (inactive) | > 100 µM (inactive) | 1 µM (active) | > 100 µM (inactive) | > 100 µM (inactive) | > 100 µM (inactive) | > 100 µM (inactive) | > 100 µM (inactive) | > 100 µM (inactive)
COC1/C=C/C(C)C(C(C)C(OC)C(C)CCC(=O)C(C)C(C/C=C/N(C)C=O)OC)OC(=O)/C=C/C=C(\C)CC(OC)C(OC)C2=CC(=O)O[C@@H](C(C)C(OC)CC(OC)/C=C/C(C)C(O)C1)[C@H]2O (stereo not given in full) | 0.249 µM (active) | 0.13 µM (active) | 0.0723 µM (active) | 0.0379 µM (active) | 0.0773 µM (active) | 0.164 µM (active) | 0.208 µM (active) | 0.126 µM (active) | 0.0745 µM (active) | 0.0268 µM (active) | 0.22 µM (active) | 0.0508 µM (active) | 0.121 µM (active) | 0.0964 µM (active) | 0.0336 µM (active) | 0.115 µM (active) | 0.12 µM (active) | 0.137 µM (active) | 0.0759 µM (active) | 0.148 µM (active)
N#Cc1ccccc1NC(=O)C(O)C(O)C(O)C(O)C=O (stereo not given) | > 100 µM (inactive) | > 100 µM (inactive) | > 100 µM (inactive) | > 100 µM (inactive) | > 100 µM (inactive) | > 100 µM (inactive) | > 100 µM (inactive) | > 100 µM (inactive) | > 100 µM (inactive) | > 100 µM (inactive) | > 100 µM (inactive) | > 100 µM (inactive) | > 100 µM (inactive) | > 100 µM (inactive) | > 100 µM (inactive) | > 100 µM (inactive) | > 100 µM (inactive) | > 100 µM (inactive) | > 100 µM (inactive) | > 100 µM (inactive)
COc1cc(C2c3cc4c(cc3OC(NNc3ccccc3)C2C)OCO4)cc(OC)c1O (stereo not given) | 0.204 µM (active) | 1.48 µM (inactive) | 3.85 µM (inactive) | 0.0893 µM (active) | 1.12 µM (inactive) | 0.251 µM (active) | 2.7 µM (inactive) | 0.54 µM (active) | 4.63 µM (inactive) | 2.33 µM (inactive) | 1.52 µM (inactive) | 3.33 µM (inactive) | 1.92 µM (inactive) | 1.26 µM (inactive) | 2.83 µM (inactive) | 0.813 µM (active) | 2.59 µM (inactive) | 0.132 µM (active) | 0.337 µM (active) | 3.42 µM (inactive)
OC1CCCC1C(O)(C(F)(F)F)C(F)(F)F (stereo not given) | > 100 µM (inactive) | > 100 µM (inactive) | > 100 µM (inactive) | > 100 µM (inactive) | > 100 µM (inactive) | > 100 µM (inactive) | > 100 µM (inactive) | > 100 µM (inactive) | > 100 µM (inactive) | > 100 µM (inactive) | > 100 µM (inactive) | > 100 µM (inactive) | > 100 µM (inactive) | > 100 µM (inactive) | > 100 µM (inactive) | > 100 µM (inactive) | > 100 µM (inactive) | > 100 µM (inactive) | > 100 µM (inactive) | > 100 µM (inactive)
CCOC(=O)CC1CCN(C(=O)c2ccccc2)C2Cc3c([nH]c4ccccc34)C12C[N+](=O)[O-] (stereo not given) | 97.3 µM (inactive) | > 100 µM (inactive) | > 100 µM (inactive) | 36.4 µM (inactive) | > 100 µM (inactive) | 71 µM (inactive) | 41 µM (inactive) | > 100 µM (inactive) | > 100 µM (inactive) | 56.6 µM (inactive) | 79.3 µM (inactive) | 62.2 µM (inactive) | 77.1 µM (inactive) | 38.7 µM (inactive) | > 100 µM (inactive) | 40.5 µM (inactive) | > 100 µM (inactive) | 58.7 µM (inactive) | 65.6 µM (inactive) | > 100 µM (inactive)
CC1=NOC(C)(O)/C1=N/O (stereo not given) | > 100 µM (inactive) | > 100 µM (inactive) | > 100 µM (inactive) | > 100 µM (inactive) | > 100 µM (inactive) | > 100 µM (inactive) | > 100 µM (inactive) | > 100 µM (inactive) | > 100 µM (inactive) | > 100 µM (inactive) | > 100 µM (inactive) | > 100 µM (inactive) | > 100 µM (inactive) | > 100 µM (inactive) | > 100 µM (inactive) | > 100 µM (inactive) | > 100 µM (inactive) | > 100 µM (inactive) | > 100 µM (inactive) | > 100 µM (inactive)
O=[N+]([O-])C(Cl)=C/C(=C(\Cl)SCc1ccccc1)[N+](=O)[O-] | 18.5 µM (inactive) | 29 µM (inactive) | 27 µM (inactive) | 13.3 µM (inactive) | 27.7 µM (inactive) | 29.5 µM (inactive) | 38.2 µM (inactive) | 18.2 µM (inactive) | 23.7 µM (inactive) | 49.5 µM (inactive) | 23.5 µM (inactive) | 18.1 µM (inactive) | 10.6 µM (inactive) | 5.62 µM (inactive) | 53 µM (inactive) | 28.6 µM (inactive) | 21.2 µM (inactive) | 28.9 µM (inactive) | 28.2 µM (inactive) | 20.2 µM (inactive)
OCCCCCNc1c2ccccc2nc2ccccc12 | 2.68 µM (inactive) | 2.02 µM (inactive) | 3.73 µM (inactive) | 2.37 µM (inactive) | 2.74 µM (inactive) | 3.13 µM (inactive) | 2.33 µM (inactive) | 2.54 µM (inactive) | 3.6 µM (inactive) | 5.52 µM (inactive) | 2.34 µM (inactive) | 2.91 µM (inactive) | 2.86 µM (inactive) | 3.44 µM (inactive) | 3.18 µM (inactive) | 2.75 µM (inactive) | 2.55 µM (inactive) | 1.8 µM (inactive) | 1.01 µM (active) | 1.9 µM (inactive)
CCC1C2Cc3ccc(O)cc3C1(CC)CCN2C (stereo not given) | > 100 µM (inactive) | 77.3 µM (inactive) | > 100 µM (inactive) | > 100 µM (inactive) | > 100 µM (inactive) | > 100 µM (inactive) | > 100 µM (inactive) | > 100 µM (inactive) | > 100 µM (inactive) | > 100 µM (inactive) | > 100 µM (inactive) | > 100 µM (inactive) | > 100 µM (inactive) | > 100 µM (inactive) | > 100 µM (inactive) | > 100 µM (inactive) | > 100 µM (inactive) | > 100 µM (inactive) | > 100 µM (inactive) | > 100 µM (inactive)
CC(=O)Nc1c2sscc-2n(C)c1=O [THIOLUTIN] | 1.01 µM (active) | 1.57 µM (inactive) | 1.86 µM (inactive) | 1.52 µM (inactive) | 1.73 µM (inactive) | 1.32 µM (inactive) | 0.63 µM (active) | 1.87 µM (inactive) | 2.15 µM (inactive) | 1.67 µM (inactive) | 0.638 µM (active) | 1.89 µM (inactive) | 1.71 µM (inactive) | 0.512 µM (active) | 2.6 µM (inactive) | 1.35 µM (inactive) | 0.664 µM (active) | 0.443 µM (active) | 0.537 µM (active) | 0.787 µM (active)
